# Test results taken from patent US6451544B2, “Identification of agents that protect against inflammatory injury to neurons” (Baylor College of Medicine, priority 1996, dated 2002).
# Entries after “also recorded” stand apart in the source; their conditions may differ. Peptide text beside a SMILES is read from it.
# Key:
# [1] = test system: rat microglia stimulated with Aβ1-42; human microglia stimulated with fraction S5; experiment: Drug blockade of Aβ induced neuron killing by rat and human microglia; format: cell-based; settings: vitamin E 100 μM, catalase 25 units/ml, glutathione 100 μM, L-NIO 10 μM, DPI 300 nM, glutamate antagonists 10 μM
# Excerpt: A number of cytotoxic factors have been reported to participate in Aβ neurotoxicity, including radicals (Behl et al., 1994), nitric oxide (Meda et al., 1995), cytokines (Mrak et al., 1995), and NMDA-like molecules (Giulian et al., 1995a).
# [2] = format: physicochemical
# Protocol: Properties and sources of amyloid peptides. […] Solubility of peptides is described for chemically-defined culture media at 37° C.
# [3] = test system: HEK cells expressing NMDA1b/2A; experiment: NTox exposure of HEK cells expressing NMDA receptors (trypan blue); format: cell-based, human
# Excerpt: FIG. 6A) Photomicrograph of trypan blue(+) control HEK cells exposed to NTox.
# Presence of neurotoxic activity will be determined by reduction in cell number, changes in biochemical markers such as loss of cell metabolic function, release of intracellular material, penetration of impermeant dyes, such as and not limited to fluorescent nuclear dyes and trypan blue (FIG. 6), reduction of the number of neurons, loss of neurofilament or synaptophysin, release of lactate dehydrogenase, or other evidence of cell injury.
# [4] = test system: microglia stimulated by Aβ1-42; experiment: In vitro screening of drugs which inactivate microglia stimulated by Aβ1-42; format: cell-based; settings: mixed with Aβ peptides; for prevention of neurotoxic microglia, signal transduction inhibitors: test concentrations 0.01 to 100 μM
# Excerpt: Such in vitro assays permit rapid screening of drugs with therapeutic potential for Alzheimer Disease.
# Such in vitro assays permit rapid screening of drugs which serve as lead compounds for development of therapeutics for Alzheimer Disease.
# Once activated by plaque components, microglia release neurotoxic agents. Although many drugs are known to suppress the immune system outside the brain, it is not known which drugs actually have the ability to inactivative plaque-stimulated microglia within the brain and thus prevent the immune-mediated damage caused by Alzheimer Disease. […] Activated microglia also require intracellular events signaled by signal transducers, to convert the plaque or Aβ complex formation with microglia into cellular events which lead to the production and release of neurotoxins including NTox. […] Thus, the use of the microglia-neuron assay systems allowed identification of specific drug families with value in the treatment of Alzheimer Disease.
# neurons = experiment: Neuroprotective effects of NTox-like compounds; format: cell-based
# [5] = test system: rat hippocampal cultures supplemented with microglia; experiment: Neurotoxicity assay: hippocampal neuron cultures supplemented with microglia (induction of neurotoxic microglia); format: cell-based
# Excerpt: Rat microglia were isolated from newborn animals using the method of Giulian and Baker, 1986, with recovery of >98% homogenous population monitored by binding the fluorescent probe acetylated low density lipoprotein labeled with 1,1′-dioctadecyl-3,3,3′,3′-tetramethyl-indo-carbocyanine [Dil-ac-LDL]). Amyloid proteins were isolated from AD neocortical gray matter laden with neuritic and core plaques with final separations involving a discontinuous sucrose gradient. […] Cultured neurons prepared from rat hippocampus consisted of process-bearing neurons (10-20% of total cell population) atop a bed of astroglia (>70%) mixed with microglia (5-10%). In order to eliminate microglia, cultures were exposed saporin (a ribosome-inactivating protein) coupled to acetylated LDL (ac-LDL) for 10 pg/ml for 18 hours. […] After 14 days in vitro, cultures (with a final concentration of 0.6% serum) were exposed to test substances in the presence or absence of exogenous microglia for 72 hours. […] Data were expressed as % mean survival expressed in terms of parallel untreated control cultures after scoring at least 8 randomly selected fields for each of 3 coverslips from at least 3 independent experiments. […]
# rat microglia = experiment: Binding of Aβ peptide-coupled fluorescent microspheres to microglia; settings: 1 micron fluorescent microspheres
# Protocol: Fluoresbrite carboxylate microspheres (YG 1.0 μm, Polysciences; 0.5 ml of a 2.5% suspension) were washed twice in 0.1 M carbonate buffer (pH 9.6) and three times in 0.02 M sodium phosphate (pH 4.5). Carbodiimide was then added dropwise to a final concentration of 1% and the suspension mixed for 4 hours at room temperature. Following 3 more washes in 0.02M sodium phosphate, the pellet was resuspended in 1.2 ml of 0.2 M borate buffer (pH 8.5) and 300 μg Aβ (or control peptide) and 5% DMSO added. After overnight mixing at room temperature, the microspheres were blocked by 1 M glycine (pH 8.0) for 30 minutes and washed in 10 mg/ml BSA in phosphate buffer.
# To delineate further which portions of the Aβ peptide served as a microglial binding site, a variety of synthetic peptides coupled to 1 micron diameter microspheres was next compared.
# brain neocortex = experiment: Microsphere implants in brain neocortex; format: in vivo
# Excerpt: FIGS. 7A, B, and C show SpheresAβ1-42 in vivo. Weeks after implantation of large microspheres (250 micron diameter) remain embedded within brain neocortex (FIG. 7A). […] Microglia were visualized by uptake of fluorescent labeled acetylated LDL, Dil-ac-LDL Bar=40 μm, FIG. 7A; 25 μm FIGS. 7B and C.
# Data support histological changes.
# In vivo binding, activation, and neurotoxicity assays involve infusion of a tagged plaque component coupled to a solid support such as microspheres (FIG. 7) into a mammalian brain. Following infusion of materials, a test compound may be co-injected into the brain intraventricularly or intracranially by cannula with delivery systems including syringes or implanted osmotic pumps. A test compound may also be delivered systemically by intraperitoneal, intravenous, intra-arterial, nasal, or oral routes. Evidence of immune activation of the brain by a plaque component may be monitored using histological, biochemical, or molecular methods such as quantitative reverse transcriptase polymerase chain reaction method to identify cell markers of immune responses including surface proteins, enzymes, or cytokines (FIG. 8). The production of neurotoxic activity may be assayed by histochemical (FIG. 7) or biochemical to identify cell markers of immune responses including injury or destruction of neurons. […]
# microglia = experiment: SpheresAβ1-42 binding to microglia; set-up: species or system rat; settings: for SpheresAβ1-42 binding to microglia in presence of GAGs or scavenger receptor ligands: heparin sulfate 50 μg/ml, dextran sulfate 500 μg/ml, ac-LDL 200 μg/ml
# Protocol: (§1) Isolated microglia (1000 per mm^2 ) were placed atop 16 mm glass coverslips in 24-well culture plates. Each well then received 250,000 SpheresAβ1-42 or Spheresmal-BSA in the presence or absence of Aβ peptides, GAGs, or scavenger receptor ligands. Binding assays were carried out at 37° C. for 4 hours after which coverslips were dipped 10 times in phosphate buffer and fixed with 4% buffered paraformaldehyde. Microsphere adherence to cells was scored at 200 magnification with phase/fluorescence microscopy. Data, expressed as % inhibition of sphere binding, was calculated from total number of spheres per field noted for control cultures receiving spheres only. Values are based upon at least 3 coverslips from 2 independent experiments. Fluoresbrite carboxylate YG microspheres (1.0 micron diameters; 0.5 ml of a 2.5% suspension) were activated with 1% carbodiimide for 4 hr at room temperature. Washed spheres were resuspended in 0.2 M borate buffer (pH 8.5) in the presence of 300 μg Aβ or 400 μg BSA in 6% DMSO. After overnight mixing at room temperature, the spheres were washed extensively and blocked by 1 M glycine (pH 8.0) for 30 minutes. Maleylation of coupled BSA was carried out at room temperature by adding 1 M maleic anhdyride in acetonitrile at pH 9.0.
# scavenger receptors = experiment: Spheresmal-BSA binding to microglia; set-up: species or system rat
# Protocol: as §1
# [6] = trypsin 5000 units/ml 60 min, heparinase 2 x 0.01 units/ml, chondroitinase ABC 2 x 0.02 units/ml
molecule,measurement,setting,value
NC(CCCP(=O)(O)O)C(=O)O (stereo not drawn) [AP5],protection against microglia-mediated neuron killing,[1],prevented neuronal loss; also recorded: prevented neuron death
NC(CCCCCP(=O)(O)O)C(=O)O (stereo not drawn) [AP7],protection against microglia-mediated neuron killing,[1],prevented neuronal loss; also recorded: blocked neuron death
CC(C)C[C@H](NC(=O)[C@H](CCCCN)NC(=O)[C@H](CCC(N)=O)NC(=O)[C@H](Cc1cnc[nH]1)NC(=O)[C@H](Cc1cnc[nH]1)NC(=O)[C@@H](N)C(C)C)C(=O)N[C@H](C(=O)N[C@@H](Cc1ccccc1)C(=O)N[C@@H](Cc1ccccc1)C(=O)N[C@@H](C)C(=O)N[C@@H](CCC(=O)O)C(=O)N[C@@H](CC(=O)O)C(=O)N[C@H](C(=O)NCC(=O)N[C@@H](CO)C(=O)N[C@@H](CC(N)=O)C(=O)N[C@@H](CCCCN)C(=O)O)C(C)C)C(C)C [Aβ12-28],Solubility,[2],soluble
CC[C@H](C)[C@H](NC(=O)[C@H](C)NC(=O)CNC(=O)[C@H](CCCCN)NC(=O)[C@H](CC(N)=O)NC(=O)[C@H](CO)NC(=O)CNC(=O)[C@@H](NC(=O)[C@H](CC(=O)O)NC(=O)[C@H](CCC(=O)O)NC(=O)[C@H](C)NC(=O)[C@H](Cc1ccccc1)NC(=O)[C@H](Cc1ccccc1)NC(=O)[C@@H](NC(=O)[C@@H](N)CC(C)C)C(C)C)C(C)C)C(=O)N[C@H](C(=O)NCC(=O)N[C@@H](CC(C)C)C(=O)N[C@@H](CCSC)C(=O)N[C@H](C(=O)NCC(=O)NCC(=O)N[C@H](C(=O)N[C@H](C(=O)N[C@H](C(=O)N[C@@H](C)C(=O)O)[C@@H](C)CC)C(C)C)C(C)C)C(C)C)[C@@H](C)CC [Aβ17-42] (H-LVFFAEDVGSNKGAIIGLMVGGVVIA-OH; N-terminus and C-terminus assumed),Solubility,[2],very insoluble
CC[C@H](C)[C@H](NC(=O)[C@H](C)NC(=O)CNC(=O)[C@H](CCCCN)NC(=O)[C@H](CC(N)=O)NC(=O)[C@H](CO)NC(=O)CN)C(=O)N[C@H](C(=O)NCC(=O)N[C@@H](CC(C)C)C(=O)N[C@@H](CCSC)C(=O)O)[C@@H](C)CC [Aβ25-35] (H-GSNKGAIIGLM-OH; N-terminus and C-terminus assumed),Solubility,[2],soluble
"c1ccc([I+]c2ccccc2)cc1 [DPI, diphenyl iodonium]",protection against microglia-mediated neuron killing,[1],no reduction of microglia-mediated neuron killing; also recorded: No protective effects were observed
N[C@H](CCC(=O)NCS(=O)(=O)O)C(=O)O [GAMS],protection against microglia-mediated neuron killing,[1],did not
"CC(=N)NCCC[C@H](N)C(=O)O.Cl [L-NIO, L-N-5-(1-imin-oethyl)ornithine hydrochloride]",protection against microglia-mediated neuron killing,[1]; hydrochloride,no reduction of microglia-mediated neuron killing; also recorded: No protective effects were observed
C[C@]12N[C@H](Cc3ccccc31)c1ccccc12 [MK-801],protection against microglia-mediated neuron killing,[1],prevented neuronal loss
same,protection against microglia-mediated neuron killing,[1]; listed as MK801,blocked neuron death
same,blockade of NTox killing effect,[3],could be blocked
CCN(CC)CCCC(C)Nc1ccnc2cc(Cl)ccc12 (stereo not drawn) [chloroquine],"prevention of neurotoxic microglia, immuno-suppressive drugs",[4]; test concentrations 0.1 to 10 μM,had a protective effect; also recorded: block neuron killing
COc1c(C=O)c(O)cc2c1C(=O)c1ccccc1C2=O [damacanthal],"prevention of neurotoxic microglia, signal transduction inhibitors",[4],had a protective effect
O=c1c(-c2ccc(O)cc2)coc2cc(O)cc(O)c12 [genistein],"prevention of neurotoxic microglia, signal transduction inhibitors",[4],had a protective effect
N[C@@H](CCC(=O)N[C@@H](CS)C(=O)NCC(=O)O)C(=O)O [glutathione],protection against microglia-mediated neuron killing,[1],no reduction of microglia-mediated neuron killing; also recorded: did not block microglial killing of neurons
CC(C(O)c1ccc(O)cc1)N1CCC(Cc2ccccc2)CC1 (stereo not drawn) [ifenprodil],protection against microglia-mediated neuron killing,[1],prevented neuronal loss; also recorded: blocked neuron death
NCCc1ccc(O)cc1 [tyramine],protection of neurons against quinolinic acid,neurons; 100 μM quinolinic acid (QUIN),protective effect did not occur; also recorded: did not block
same,protection of neurons against NTox / Aβ1-42-stimulated microglia,neurons; microglia stimulated with Aβ1-42 or isolated NTox applied to neurons,prevented neuronal injury; also recorded: did not damage neurons in the presence of tyramine
SpheresAβ1-42: Aβ1-42 coupled to microspheres,"capacity to elicit neurotoxic microglia, coupled to microspheres or in solution","[5]; 250,000 microspheres per culture, 100,000 microglia per culture, 72 hour incubation",induced neuron killing
same,uptake of peptide-coupled microspheres by microglia in culture,rat microglia,rapidly engulfed by cultured microglia
same,reactive microglia around implanted microspheres,"brain neocortex; 250 micron spheres, weeks after implantation",chronically stimulate the presence of reactive cells
same,increase in scavenger receptor II mRNA in tissue surrounding implant,"brain neocortex; two weeks after implantation, vs undamaged control tissue or SphereBSA",5 fold
catalase,protection against microglia-mediated neuron killing,[1],no reduction of microglia-mediated neuron killing; also recorded: did not block microglial killing of neurons
chondroitin sulfate,SpheresAβ1-42 binding to microglia in presence of GAGs or scavenger receptor ligands,microglia,not similar compounds; also recorded: only heparin sulfate blocked
dextran sulfate,SpheresAβ1-42 binding to microglia in presence of GAGs or scavenger receptor ligands,microglia,not similar compounds
same,SpheresAβ1-42 binding to microglia in presence of GAGs or scavenger receptor ligands,microglia; listed as dextm sulfate,only heparin sulfate blocked
same,Spheresmal-BSA binding to microglia in presence of ligands,"scavenger receptors; dextran sulfate 500 μg/ml, ac-LDL 200 μg/ml, Aβ1-16 10 μmole/l",blocked Spheresmal-BSA binding
heparin sulfate,SpheresAβ1-42 binding to microglia in presence of GAGs or scavenger receptor ligands,microglia,reduction of binding; also recorded: blocked SpheresAβ1-42 binding
same,SpheresAβ1-42 binding to microglia in presence of GAGs or scavenger receptor ligands,microglia; listed as heparan sulfate,block Aβ binding to microglia
"rodent Aβ1-42: rodent form of Aβ1-42 (DAEFGHDSGFEVRHQKLVFFAEDVGSNKGAIIGLMVGGVVIA; Amyloid-beta protein 42; UniProt P12023 672-713, looked up, fragment)",induction of neurotoxic microglia / neuron killing in presence of microglia,"[5]; peptide in solution, typically 1 μmole/l, 72 hours, microglia 500 per mm^2",does not induce toxicity
trypsin,SpheresAβ1-42 binding after enzymatic pre-treatment of microglia,microglia; [6],reduced
same,Spheresmal-BSA binding after enzymatic pre-treatment of microglia,scavenger receptors; [6],reduced
vitamin E,protection against microglia-mediated neuron killing,[1],no reduction of microglia-mediated neuron killing; also recorded: did not block microglial killing of neurons
